In PubChem BioAssay AID248 (DTP/NCI, 2004):
Where “and” joins values, the source holds several entries; their conditions need not be identical. Equal values may be shown once. Toxic doses and inconclusive results are not listed. Rule as the data show it: active = T/C of 150% or more; inactive = T/C below 125%.

Test system: L1210 leukemia ip in BDF1 mice, survival T/C
Test: NCI In Vivo Anticancer Drug Screen. Data for tumor model L1210 Leukemia (intraperitoneal) in B6D2F1 (BDF1) mice
Conditions: endpoint: mean survival time, higher = longer survival
Outline: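 Each compound was tested against a transplantable tumor grown in mice. The endpoint was survival, with treated animals benchmarked against vehicle controls as a simple ratio.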

[1] = dose: 100.0 mg/kg/injection, schedule: Q04DX003 (ip), vehicle: Klucel (hydroxypropylcellulose) (HPC)
[2] = dose: 200.0 mg/kg/injection, schedule: Q04DX003 (ip), vehicle: Klucel (hydroxypropylcellulose) (HPC)
[3] = dose: 400.0 mg/kg/injection, schedule: Q04DX003 (ip), vehicle: Klucel (hydroxypropylcellulose) (HPC)
[4] = dose: 100.0 mg/kg/injection, schedule: Q01DX009 (ip), vehicle: Klucel (hydroxypropylcellulose) (HPC)
[5] = dose: 200.0 mg/kg/injection, schedule: Q01DX009 (ip), vehicle: Klucel (hydroxypropylcellulose) (HPC)
[6] = dose: 400.0 mg/kg/injection, schedule: Q01DX009 (ip), vehicle: Klucel (hydroxypropylcellulose) (HPC)
[7] = dose: 100.0 mg/kg/injection, schedule: Q04DX002 (ip), vehicle: saline with Tween-80
[8] = dose: 100.0 mg/kg/injection, schedule: Q04DX003 (ip), vehicle: saline with Tween-80
[9] = dose: 200.0 mg/kg/injection, schedule: Q04DX002 (ip), vehicle: saline with Tween-80
[10] = dose: 200.0 mg/kg/injection, schedule: Q04DX003 (ip), vehicle: saline with Tween-80
[11] = dose: 400.0 mg/kg/injection, schedule: Q04DX003 (ip), vehicle: saline with Tween-80
[12] = dose: 400.0 mg/kg/injection, schedule: Q04DX002 (ip), vehicle: saline with Tween-80
[13] = dose: 100.0 mg/kg/injection, schedule: Q01DX009 (ip), vehicle: saline with Tween-80
[14] = dose: 200.0 mg/kg/injection, schedule: Q01DX009 (ip), vehicle: saline with Tween-80
[15] = dose: 400.0 mg/kg/injection, schedule: Q01DX009 (ip), vehicle: saline with Tween-80
[16] = dose: 100.0 mg/kg/injection, schedule: Q01DX001 (ip), vehicle: saline
[17] = dose: 200.0 mg/kg/injection, schedule: Q01DX001 (ip), vehicle: saline
[18] = dose: 400.0 mg/kg/injection, schedule: Q01DX001 (ip), vehicle: saline

Measured: T/C

Cc1cc(N(CCCl)CCCl)ccc1C=Nc1cc(Cl)ccc1-n1ccnc1C
inactive: dose: 50.0 mg/kg/injection, schedule: Q04DX003 (ip), vehicle: Klucel (hydroxypropylcellulose) (HPC) 98 % of control | [1] 98 % of control | [2] 101 % of control | [3] 90 % of control

CC1(CBr)Oc2ccccc2O1
inactive: [4] 115 % of control | [5] 97 % of control | [6] 101 % of control

CC12OC1C(=O)c1ccccc1C2=O (centres undefined)
inactive: dose: 5.0 mg/kg/injection, schedule: Q04DX003 (ip), vehicle: Klucel (hydroxypropylcellulose) (HPC) 103 % of control | dose: 10.0 mg/kg/injection, schedule: Q04DX003 (ip), vehicle: Klucel (hydroxypropylcellulose) (HPC) 97 % of control

[Br][Ge]([c]1ccccc1)([c]1ccccc1)[c]1ccccc1
inactive: dose: 25.0 mg/kg/injection, schedule: Q04DX002 (ip), vehicle: saline with Tween-80 104 % of control | dose: 50.0 mg/kg/injection, schedule: Q04DX002 (ip), vehicle: saline with Tween-80 96 % of control | [7] 104 % of control | [8] 94 % of control | [9] 93 % of control | [10] 94 % of control | [11] 90 % of control

CC(=N/Nc1ccc([N+](=O)[O-])cc1[N+](=O)[O-])/C(C)=C/C1C=CCCC1(C)C (centres undefined)
inactive: [7] 100 % of control | [9] 103 % of control | [12] 96 % of control

O=c1c([N+](=O)[O-])cc([N+](=O)[O-])cn1O
inactive: [1] 100 % of control | [2] 100 % of control | [3] 90 % of control

CCCCCCCCCCCC(=O)NC(=S)Nc1ccc(C(=O)O)cc1
inactive: dose: 100.0 mg/kg/injection, schedule: Q01DX001 (ip), vehicle: saline with Tween-80 103 % of control | [13] 98 % of control and 101 % of control | [7] 102 % of control and 105 % of control | [8] 101 % of control | dose: 200.0 mg/kg/injection, schedule: Q01DX001 (ip), vehicle: saline with Tween-80 102 % of control | [14] 93 % of control and 103 % of control | [9] 100 % of control and 112 % of control | [10] 98 % of control | dose: 400.0 mg/kg/injection, schedule: Q01DX001 (ip), vehicle: saline with Tween-80 96 % of control | [15] 101 % of control and 92 % of control | [12] 103 % of control and 115 % of control | [11] 101 % of control

Cc1ccc(N=Cc2ccc3c(c2)OCO3)cc1
inactive: dose: 100.0 mg/kg/injection, schedule: Q01DX001 (ip), vehicle: Klucel (hydroxypropylcellulose) (HPC) 100 % of control | [4] 91 % of control | dose: 200.0 mg/kg/injection, schedule: Q01DX001 (ip), vehicle: Klucel (hydroxypropylcellulose) (HPC) 104 % of control | [5] 105 % of control | dose: 400.0 mg/kg/injection, schedule: Q01DX001 (ip), vehicle: Klucel (hydroxypropylcellulose) (HPC) 118 % of control | [6] 98 % of control

CC(C)CCCC(C)C1CCC2C3CC=C4CC(O[N+](=O)[O-])CCC4(C)C3CCC12C (centres undefined)
inactive: [7] 102 % of control | [9] 112 % of control | [12] 102 % of control

CC1=C(C)Cc2c(OC(=O)c3ccccc3)ccc(OC(=O)c3ccccc3)c2C1
inactive: dose: 3.12 mg/kg/injection, schedule: Q01DX009 (ip), vehicle: water 101 % of control | dose: 6.25 mg/kg/injection, schedule: Q01DX009 (ip), vehicle: water 101 % of control | dose: 12.5 mg/kg/injection, schedule: Q01DX009 (ip), vehicle: water 96 % of control | dose: 25.0 mg/kg/injection, schedule: Q01DX009 (ip), vehicle: water 98 % of control and 119 % of control | dose: 50.0 mg/kg/injection, schedule: Q01DX009 (ip), vehicle: water 101 % of control | dose: 100.0 mg/kg/injection, schedule: Q01DX009 (ip), vehicle: water 90 % of control | dose: 200.0 mg/kg/injection, schedule: Q01DX009 (ip), vehicle: water 90 % of control | dose: 400.0 mg/kg/injection, schedule: Q01DX009 (ip), vehicle: water 97 % of control

O=C(c1ccc(O)cc1O)c1cccc2ccccc12
inactive: [4] 95 % of control | [1] 93 % of control | [5] 97 % of control | [2] 95 % of control | [6] 99 % of control | [3] 93 % of control

O=C(NC(Cc1ccccc1)C(=O)O)OCc1ccccc1 (centres undefined)
inactive: [13] 98 % of control | [8] 105 % of control | [14] 98 % of control | [10] 94 % of control | [15] 88 % of control | [11] 96 % of control

ClCCCN1Cc2ccccc2CCc2ccccc2C1
inactive: [1] 102 % of control | [2] 100 % of control | [3] 107 % of control

CCCCCCCCCCCCCCCCCC(=O)OCCOCCOCCOCCOCCOCCOCCOCCOCCO
inactive: [16] 100 % of control | [17] 94 % of control | [18] 97 % of control

CCCCC(C#N)C(=O)OCC (centres undefined)
inactive: [1] 97 % of control | [2] 94 % of control | [3] 87 % of control

O=[N+]([O-])c1ccc(N=Nc2ccc(O)cc2)c([N+](=O)[O-])c1
inactive: dose: 50.0 mg/kg/injection, schedule: Q01DX001 (ip), vehicle: carboxymethylcellulose (CMC) 100 % of control | dose: 100.0 mg/kg/injection, schedule: Q01DX001 (ip), vehicle: carboxymethylcellulose (CMC) 106 % of control | dose: 200.0 mg/kg/injection, schedule: Q01DX001 (ip), vehicle: carboxymethylcellulose (CMC) 105 % of control

C/C(Cc1cc(C)nc(N)n1)=N\Nc1ccccc1
inactive: dose: 6.25 mg/kg/injection, schedule: Q01DX009 (ip), vehicle: Klucel (hydroxypropylcellulose) (HPC) 93 % of control | dose: 12.5 mg/kg/injection, schedule: Q01DX009 (ip), vehicle: Klucel (hydroxypropylcellulose) (HPC) 115 % of control | dose: 25.0 mg/kg/injection, schedule: Q01DX009 (ip), vehicle: Klucel (hydroxypropylcellulose) (HPC) 91 % of control

CC(=O)CC(=O)OCC1COCO1 (centres undefined)
inactive: dose: 222.0 mg/kg/injection, schedule: Q01DX Z (ip), vehicle: methylcellulose (MC) 104 % of control | dose: 333.0 mg/kg/injection, schedule: Q01DX Z (ip), vehicle: methylcellulose (MC) 95 % of control | dose: 500.0 mg/kg/injection, schedule: Q01DX Z (ip), vehicle: methylcellulose (MC) 107 % of control

O=C(Nc1cccc(Cl)c1)c1ccccc1
inactive: [4] 94 % of control | [1] 92 % of control | [5] 94 % of control | [2] 90 % of control | [6] 97 % of control | [3] 101 % of control

C/C=C\c1ccc(OC(=O)NCCC)c(OC)c1
inactive: [13] 95 % of control and 97 % of control | dose: 100.0 mg/kg/injection, schedule: Q04DX002 (ip), vehicle: Klucel (hydroxypropylcellulose) (HPC) 100 % of control | [7] 102 % of control and 106 % of control | [8] 97 % of control | [14] 95 % of control and 97 % of control | dose: 200.0 mg/kg/injection, schedule: Q04DX002 (ip), vehicle: Klucel (hydroxypropylcellulose) (HPC) 113 % of control | [9] 105 % of control and 112 % of control | [10] 87 % of control | [15] 97 % of control | dose: 400.0 mg/kg/injection, schedule: Q04DX002 (ip), vehicle: Klucel (hydroxypropylcellulose) (HPC) 95 % of control | [12] 94 % of control and 106 % of control | [11] 102 % of control

CC(=O)c1c[nH]c2ccccc12
inactive: dose: 100.0 mg/kg/injection, schedule: Q01DX009 (ip), vehicle: saline 101 % of control | dose: 200.0 mg/kg/injection, schedule: Q01DX009 (ip), vehicle: saline 108 % of control | dose: 400.0 mg/kg/injection, schedule: Q01DX009 (ip), vehicle: saline 95 % of control

CCOC(=O)C(C(C)=O)C(CCCCO)C(C(C)=O)C(=O)OCC (centres undefined)
inactive: [16] 97 % of control | [17] 101 % of control | [18] 94 % of control

Cc1ccc(CC(=O)c2c(C)[nH]c3ccccc23)cc1C
inactive: dose: 50.0 mg/kg/injection, schedule: Q01DX001 (ip), vehicle: saline 108 % of control | [16] 96 % of control | [17] 96 % of control | [18] 96 % of control
